Where a name gives a salt, the structure may show the parent alone. Read-outs that look alike come from different tables or passages of the source.
Target: T1, m1 muscarinic receptor (Rattus norvegicus, UniProt P08482)
T1 construct: expressed in transfected cells; host or cells: A9 L cells (mouse fibroblast line)
T1 sequence (P08482 1-460): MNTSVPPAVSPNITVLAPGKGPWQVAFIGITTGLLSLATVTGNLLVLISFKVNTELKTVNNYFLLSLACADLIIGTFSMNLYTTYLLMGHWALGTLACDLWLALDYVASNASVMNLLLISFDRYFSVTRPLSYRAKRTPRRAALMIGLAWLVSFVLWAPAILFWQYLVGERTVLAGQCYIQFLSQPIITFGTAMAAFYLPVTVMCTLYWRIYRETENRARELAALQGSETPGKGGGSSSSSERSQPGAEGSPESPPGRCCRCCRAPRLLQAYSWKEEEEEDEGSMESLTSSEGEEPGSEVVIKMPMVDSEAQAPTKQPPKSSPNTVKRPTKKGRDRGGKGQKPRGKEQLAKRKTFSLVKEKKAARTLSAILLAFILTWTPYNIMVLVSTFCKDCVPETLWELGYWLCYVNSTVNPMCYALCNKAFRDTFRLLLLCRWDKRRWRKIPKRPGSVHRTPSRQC
Test: IP hydrolysis in A9 L cells cloned with the genetic m1 muscarinic receptor
Assay type: cell-based, human and rat
Conditions: for Emax: A9L-m1, 0.75 h, percentage of total [3H]IP accumulated in the presence of 100 µM carbachol stimulation, 37°C for 45 min, read-out: % PI (efficacy); for EC50: IP hydrolysis, seven point curves, three separate experiments
Protocol: IP hydrolysis in A9 L cells cloned with the genetic m, muscarinic receptor: A9 L cells transfected with human and rat m, muscarinic receptors (Dörje et al., 1991; Jones et al., 1988), were cultured to confluence in 75-ml flasks containing Dulbecco's modified essential media. Cells were prelabeled with 1 µCi/ml of myo(2-[^3H]inositol (Amersham Inc., 16.3 Ci/mmol) for 48 hr before assaying. On the day of assay, cells were detached using a 30-sec exposure to 0.25% trypsin in 1 mM EDTA. The cells were collected by centrifugation (300 x g for 5 min) and resuspended in oxygenated HEPES buffer containing 10 mM LiCl (NaCl 142 mM, KCl 5.6 mM, CaCl2 2.2 mM, MgCl2 1 mM, NaHCO3 3.6 mM, D-glucose 5.6 mM and Na^+ HEPES 30 mM, pH 7.4). Cells were incubated at 37°C for 45 min in the presence of varying concentrations of test compounds. Total IP hydrolysis was determined using the method of Schoepp and Johnson (1988). […] Half-maximal (EC50) values were determined from the mean (±S.D.) of seven point curves determined from three separate experiments.

| Structure (SMILES) | Emax [%] | EC50 (read-out: EC50) [nM] | EC50 (EC50, nM) [nM] |
| --- | --- | --- | --- |
| Clc1ccc(C#CCOc2nsnc2[C@H]2CN3CCC[C@H]2C3)cc1 [Compound 44, Exo (5R,6R)-6-(3-(3-(4-Chlorophenyl)-2-propyn-1-yloxy)-1,2,5-thiadiazol-4-yl)-1-azabicyclo[3.2.1]octane, (+)-tartrate] | 81 | 32 | – |
| COc1cccc(C#CC(Oc2nsnc2[C@H]2CN3CCC[C@H]2C3)C(C)C)c1 (stereo partly drawn) [Compound 45, Exo (5R,6R)-6-(3-(1-(3-Methoxyphenyl)-4-methyl-1-pentyn-3-yloxy)-1,2,5-thiadiazol-4-yl)-1-azabicyclo[3 2.1]octane, (+)-tartrate] | 66 | 8 | – |
| CC(C#Cc1cccs1)Oc1nsnc1[C@H]1CN2CCC[C@H]1C2 (stereo partly drawn) [Compound 47, Exo (5R,6R)-6-(3-(3-(2-Thienyl)-1-methyl-2-propyn-1-yloxy)-1,2,5-thiadiazol-4-yl)-1-azabicyclo[3.2.1]octane, (+)-tartrate] | 102 | 102 | – |
| CC(C#Cc1ccsc1)Oc1nsnc1[C@H]1CN2CCC[C@H]1C2 (stereo partly drawn) [Compound 48, Exo (5R,6R)-6-(3-(3-(3-Thienyl)-1-methyl-2-propyn-1-yloxy)-1,2,5-thiadiazol-4-yl)-1-azabicyclo[3.2.1]octane, (+)-tartrate] | 96 | 7 | – |
| C(#Cc1cccs1)COc1nsnc1[C@H]1CN2CCC[C@H]1C2 [Compound 49, Exo (5R,6R)-6-(3-[3-(2-Thienyl)-2-propyn-1-yloxy]-1,2,5-thiadiazol-4-yl)-1-azabicyclo[3 2 1]octane, oxalate] | 100 | 0.7 | – |
| C(#Cc1ccsc1)COc1nsnc1[C@H]1CN2CCC[C@H]1C2 [Compound 50, Exo (5R,6R)-6-(3-[3-(3-Thienyl)-2-propyn-1-yloxy]-1,2,5-thiadiazol-4-yl)-1-azabicyclo[3.2.1]octane, oxalate] | 101 | 2 | – |
| O=C1CCCN1CC#CCN1CCCC1 [oxotremorine, reference compound] | – | – | 16300 |

— patent publication EP0977755B1, “HETEROCYCLIC COMPOUNDS AND THEIR PREPARATION AND USE” (NOVO NORDISK A/S, priority 1997, dated 1998)
